Results taken from patent US20210246439A1, “ENGINEERED BI-STABLE TOGGLE SWITCH AND USES THEREOF” (Massachusetts Institute of Technology, priority 2020, published 2021).

Tests used:
[1] = system: CasE target hairpin containing a theophylline responsive aptamer; assay: Proof of concept: CasE target hairpin with theophylline responsive aptamer 5' of eYFP, co-delivered with CasE; type: cell-based, human; details: HEK293 cells, versus absence of theophylline
Text: Alternatively, the engineered bi-stable toggle switch described in Example 1 can be designed to be able to respond to different small molecules to switch the system between different states. In this system, each of the endoRNAse target sites can include a small molecule-response aptamers. Binding of the small molecule to the aptamer stabilizes a secondary structure in the aptamer RNA that blocks the endoRNAse from cleaving its recognition hairpin. As illustrated by FIG. 4A, the CRISPR-endoRNAse recognition hairpin contains an aptamer sequence capable of binding to a small molecule. In the absence of the small molecule, the endoRNAse is able to cleave the recognition hairpin; however, the addition of the small molecule to the system induces a conformational change of the endoRNAse target hairpin, and such conformational change renders the endoRNAse incapable of binding and cleaving its target hairpin. […] In this experiment, a CasE target hairpin containing a theophylline responsive aptamer was placed 5′ of an eYFP coding sequence in an eYFP-expressing construct. This eYFP-expressing construct was co-delivered to HEK293 cells with another construct expressing CasE.

[2] = system: engineered bi-stable toggle switch (CasE-PEST, Csy4-PEST, DDd-CasE, DDe-DDe-Csy4) in HEK293 cells; assay: Toggle switch with DDd-CasE and DDe-DDe-Csy4 in transfected HEK293 cells, small-molecule control, flow cytometry of mKO2/eYFP; type: cell-based, human
Procedure: Output fluorescent protein genes may also contain PERSIST activation domains to decrease expression in the OFF state. […] Further, HEK293 cells were transfected with CasE-PEST, Csy4-PEST, DDd-CasE and DDe-DDe-Csy4 transiently and cultured in the absence of small molecule for 24 hours.

[3] = system: engineered bi-stable motif; assay: Screening of promoter and degradation domain combinations with Csy4 on the bi-stable motif (polytransfection, eYFP/TagBFP); type: cell-based
Procedure: Csy4 was first selected to be fused with either one copy or two copies of DDd domain or DDe domain respectively: DDe-Csy4, DDe-DDe-Csy4, DDd-Csy4, and DDd-DDd-Csy4. Various promoters (e.g., phEF1α, pUbc, and pPh1f) were used to drive the expression of the Csy4 or Csy4-degradation domain fusion proteins. pPh1f promoters were tested in the presence of Gal4-NLS-VP64. As a result, the following constructs were generated: phEF1α-Csy4, pUbc-DDd-Csy4, pUbc-DDd-DDd-Csy4, pPh1f-DDd-DDd-Csy4, pPh1f-DDd-Csy4-PEST, pPh1f-DDe-Csy4, pUbc-DDe-Csy4, pUbc-DDe-Csy4-PEST, pPh1f-DDe-DDe-Csy4, pUbc-DDe-DDe-Csy4, and pUbc-DDe-DDe-Csy4-PEST. Each of the constructs and the engineered bi-stable toggle switch described in Example 1 were delivered to the cells by polytransfection (Gam et al, A ‘poly-transfection’ method for rapid, one-pot characterization and optimization of genetic systems, Nucleic Acids Research, Volume 47, Issue 18, 10 Oct. 2019, Page e106). The output molecules were eYFP and TagBFP. The system was designed such that Csy4 represses eYFP and CasE represses TagBFP. A cell in the CasE-high state expressed eYFP and a cell in the Csy4-high state expresses TagBFP. The ratio between CasE to Csy4 was set at 6.7 times as much CasE as Csy4, biasing the system towards a CasE-high state in the absence of additional proteins. […]

[4] = system: engineered bi-stable motif; assay: Screening of DDd-CasE fusion proteins on the bi-stable motif (polytransfection, eYFP/TagBFP); type: cell-based; details: hEF1α promoter, among CasE-DDd fusions screened
Procedure: Further, fusion proteins between CasE and one or more DDd domains were screened similarly as described above. In this experiment, only hEF1α promoter was tested. Each of the construct and the engineered bi-stable toggle switch described in Example 1 were delivered to the cells by polytransfection. The output molecules were eYFP and TagBFP. The system was designed such that Csy4 represses eYFP and CasE represses TagBFP. A cell in the CasE-high state expressed eYFP and a cell in the Csy4-high state expresses TagBFP. The ratio between CasE to Csy4 was set at 1.6 times as much Csy4 as CasE, biasing the system towards a Csy4-high state in the absence of additional proteins.

Cn1c(=O)c2[nH]cnc2n(C)c1=O [theophylline]
eYFP expression in the presence of theophylline (repression by CasE lifted) [1]: two-folds increase

COc1cc(Cc2cnc(N)nc2N)cc(OC)c1OC [TMP, trimethoprim]
reporter expression after small molecule addition ([2]; 10 μM added at 24 hrs and maintained for 48 hrs, roughly equal mKO2 and eYFP before addition): higher frequencies of eYFP expression than mKO2 expression

4-hydroxytamoxifen [4-OHT]
state the bi-stable toggle switch stabilizes on ([2]; small molecule in the system for 24 hours): Csy4-high/CasE-low state (mKO2-high/eYFP-low)

B1: DDe-DDe-Csy4: fusion protein of two DDe domains and Csy4, nucleotide sequence SEQ ID NO: 5 (protein)
chain: MSLALSLTADQMVSALLDAEPPILYSEYDPTRPFSEASMMGLLTNLADRELVHMINWAKRVPGFVDLALHDQVHLLECAWMEILMIGLVWRSMEHPGKLLFAPNLLLDRNQGKCVEGGVEIFDMLLATSSRFRMMNLQGEEFVCLKSIILLNSGVYTFLSSTLKSLEEKDHIHRVLDKITDTLIHLMAKAGLTLQQQHQRLAQLLLILSHIRHMSSKRMEHLYSMKCKNVVPLSDLLLEMLDAHRLMSLALSLTADQMVSALLDAEPPILYSEYDPTRPFSEASMMGLLTNLADRELVHMINWAKRVPGFVDLALHDQVHLLECAWMEILMIGLVWRSMEHPGKLLFAPNLLLDRNQGKCVEGGVEIFDMLLATSSRFRMMNLQGEEFVCLKSIILLNSGVYTFLSSTLKSLEEKDHIHRVLDKITDTLIHLMAKAGLTLQQQHQRLAQLLLILSHIRHMSSKRMEHLYSMKCKNVVPLSDLLLEMLDAHRLMDHYLDIRLRPDPEFPPAQLMSVLFGKLHQALVAQGGDRIGVSFPDLDESRSRLGERLRIHASADDLRALLARPWLEGLRDHLQFGEPAVVPHPTPYRQVSRVQAKSNPERLRRRLMRRHDLSEEEARKRIPDTVARALDLPFVTLRSQSTGQHFRLFIRHGPLQVTAEEGGFTCYGLSKGGFVPWF
capability of (i) being degraded in the absence of 4-OHT and (ii) cleaving RNA efficiently in the presence of 4-OHT ([3]; among Csy4 fusion constructs screened): best capability
fraction of cells in the TagBFP high state with versus without 4-OHT ([3]; regardless of promoter, especially in higher ratio bins): higher fraction of cells in the TagBFP high state when 4-OHT is present than without

B2: DDd-CasE: fusion protein of DDd domain and CasE, nucleotide sequence SEQ ID NO: 6 (protein)
chain: MYLSKIIIARAWSRDLYQLHQELWHLFPNRPDAARDFLFHVEKRNTPEGCHVLLQSAQMPVSTAVATVIKTKQVEFQLQVGVPLYFRLRANPIKTILDNQKRLDSKGNIKRCRVPLIKEAEQIAWLQRKLGNAARVEDVHPISERPQYFSGEGKNGKIQTVCFEGVLTINDAPALIDLLQQGIGPAKSMGCGLLSLAPLMISLIAALAVDYVIGMENAMPWNLPADLAWFKRNTLNKPVIMGRHTWESIGRPLPGRKNIILSSQPSTDDRVTWVKSVDEAIAACGDVPEIMVIGGGRVIEQFLPKAQKLYLTHIDAEVEGDTHFPDYEPDDWESVFSEFHDADAQNSHSYCFEILERR
being degraded in the absence of TMP and cleaving RNA in the presence of TMP [4]: better at (i) being degraded in the absence of TMP; and (ii) cleaving RNA efficiently in the presence of TMP
